Laboratory results as given in patent publication US20140323581A1, “TRANSCRIPTOME WIRING ANALYSIS IN PARKINSON'S DISEASE AND USES THEREOF” (THE TRUSTEES OF COLUMBIA UNIVERSITY IN THE CITY OF NEW YORK, priority 2011, published 2014).
Entries after “also recorded” stand apart in the source; their conditions may differ.

Assays:
aSynL:total ratio [1] = experiment: aSynL:total ratio by RT-qPCR in rat primary cortical cultures; assay type: cell-based; settings: for aSynL:total ratio: rat primary cortical neurons, RT-qPCR, dopamine, picrotoxin, muscimol, NMDA 100 μM, kainic acid 50 μM, vs vehicle; for dopamine-mediated potentiation of the aSynL:total ratio: nomifensine 100 μM with dopamine 100 μM for 24 h
Experimental: (§1) Cultures of rodent neurons were prepared as described in ^53. Cells were maintained in vitro for 3-5 days before drug treatments or transfection using Lipofectamine 2000 (Iinvitrogen) following manufacturer's instructions.
RT-qPCR analyses were performed as described ^60. The human aSynL:Total mRNA ratio was quantified in terms of AACt ^60 using primer pair Lh for the human long form (HaSynLfw [[…]] SEQ ID NO: 13, and HaSynLry [[…]]) SEQ ID NO: 14 and primer pair Th for human total (HaSynTfw [[…]] SEQ ID NO: 15 and HaSynTrv [[…]] SEQ ID NO: 16). For analysis of either mouse or rat, primer pairs mrL (RaSynLfw [[…]] SEQ ID NO: 17 and RaSynLrv [[…]] SEQ ID NO: 18) and mrT (RaSynTfw [[…]] SEQ ID NO: 19, RaSynTry [[…]] SEQ ID NO: 20) were used.

human aSyn 3′UTR = experiment: Firefly luciferase-aSyn 3′UTR reporter assay in SH-SY5Y cells; assay type: cell-based; settings: for luciferase expression, Firefly/Renilla ratio, 1.1 kb human aSyn 3′UTR vector: 100 μM for 24 h
Experimental: The human SH-SY5Y neuroblastoma cell line (ATCC) was cultured following the distributor's instructions. Cells were plated at a density of 4×10^5 cells per well (in 48-well plates) in wells coated with 0.1% gelatin (Specialty Media, Millipore) 24 hours prior to transfection. Transfections were performed with Lipofectamine 2000 reagent (Invitrogen) following the manufacturer's instructions. The human HEK-293T cell line (ATCC) was cultured in DMEM (Invitrogen) supplemented with 10% FBS (Invitrogen). Cells were plated at a density of 8×10^3 cells per well (96-well plates). Mir-34b-3p precursor, specific Anti-miR Mir-34b-3p inhibitor, Anti-miR Negative Control #1, and Pre-miR Negative Control #1 were purchased from Ambion. Cells were co-transfected with luciferase reporter plasmids and a small RNA or inhibitor (as indicated) using siPort NeoFx reagent (Ambion) following manufacturer's protocol. Luciferase and Renilla activities were measured 24 h or 48 h after transfection using Dual-Glo luciferase assay system (Promega).

aSynL/total ratio = aSynL/total ratio in SK-N-MC cells treated with chronic low-dose rotenone (reanalysis of GEO GSE4773); assay type: cell-based, human; settings: one or two weeks vs vehicle
aSynL:total ratio [2] = experiment: In situ hybridization for aSyn CDS and long 3′UTR in primary cortical neuron cultures from aSyn PAC transgenic mice; assay type: cell-based; settings: 100 μM for 24 h, DIV 4 PAC mouse cortical neurons
Experimental: as §1
In situ hybridization were performed using QuantiGene® ViewRNA ISH Cell Assay (Panomics) following manufacturer's instructions, with QG ViewRNA TYPE 8 Probe Sets (Panomics) designed to target either human aSyn CDS sequences (bases 264-634 from NM_000345.3; Panomics) or to target human aSynL 3′UTR sequences (bases 1180-1760 from NM_000345.3).

aSyn protein [3] = experiment: Total endogenous aSyn protein by ELISA in SH-SY5Y cells; assay type: cell-based, human; settings: 100 μM for 48 h
Experimental: (§2) Mitochondria were purified using Qproteome Mitochondria Isolation Kit (Qiagen) and membrane fractions were isolated using Subcellular Protein Fractionation Kit (Pierce) following manufacturers' instructions. Human aSyn protein levels were determined using the aSyn Human ELISA kit (Invitrogen). Absorbance was read on a VersaMax ELISA Microplate Reader (Molecular Devices, Inc) at 450 nm. The amount of human aSyn was normalized to total cellular protein as determined with the DC Protein Assay Reagent kit (Bio-Rad). Mitochondrial preparations were validated by Western blot analysis for Tom20 and synaptophysin (see FIG. 12d).

aSyn protein [4] = experiment: aSyn protein by ELISA in mitochondrial and membrane fractions of SH-SY5Y cells; assay type: cell-based, human; settings: 100 μM for 48 h
Experimental: as §2

aSyn protein [5] = experiment: Colocalization of aSyn and Mitotracker in primary cortical neuron cultures from PAC transgenic mice; assay type: cell-based; settings: primary mouse cortical neurons, 100 μM for 24 h
Experimental: as §1
Immunostainings were done as previously described ^59 with Rabbit anti-aSyn (Santa Cruz, 1:200) or Mouse anti-Synaptophysin (Millipore, 1:100) as primary antibodies, and Alexa 555 goat anti-rabbit IgG or Alexa 633 goat anti-mouse IgG (Invitrogen) secondary antibodies. MitoTracker-Orange (Invitrogen, 1:10000) was added into media for 15-20 min in living cell culture. Collocalization analyses were done in R using EBImage package; using Pearson's correlation coefficient.

NCc1cc(=O)[nH]o1 [muscimol]
aSynL:total ratio (aSynL:total ratio [1]): alter | luciferase expression, Firefly/Renilla ratio, 1.1 kb human aSyn 3′UTR vector (human aSyn 3′UTR; SH-SY5Y): decreased

CN1CCCC1c1cccnc1 (stereo not shown) [nicotine]
expression of an aSynL-3′UTR bearing reporter gene (Firefly/Renilla) (human aSyn 3′UTR; nicotine 100 μM, with or without dopamine 100 μM, 24 h): decreases

CN1Cc2c(N)cccc2C(c2ccccc2)C1 (stereo not shown) [nomifensine]
dopamine-mediated potentiation of the aSynL:total ratio (aSynL:total ratio [1]): suppressed sensitivity | dopamine-mediated potentiation of the aSynL:total ratio (aSynL:total ratio [1]; listed as Nomifensine): suppresses | dopamine-increased luciferase accumulation, luciferase-aSyn 3′UTR vector (human aSyn 3′UTR; SH-SY5Y, dopamine 100 μM with nomifensine 100 μM, 24 h): suppressed

C=C(C)[C@H]1Cc2c(ccc3c2O[C@@H]2COc4cc(OC)c(OC)cc4[C@@H]2C3=O)O1 [rotenone]
aSynL/total ratio (Affymetrix probesets 204467_s_at and 211546_x_at) (aSynL/total ratio): predictably modify; also recorded: increased | aSynL/total ratio (Affymetrix probesets 204467_s_at and 211546_x_at) (aSynL/total ratio; listed as Rotenone): Mitochondrial toxin increases aSynL: total ratio

picrotoxin
aSynL:total ratio (aSynL:total ratio [1]): significantly increased; also recorded: alter | aSynL:total ratio (ratio of in situ hybridization signals) (aSynL:total ratio [2]): increase | endogenous aSyn protein levels (ELISA, normalized to total protein) (aSyn protein [3]): significantly increased | luciferase expression, Firefly/Renilla ratio, 1.1 kb human aSyn 3′UTR vector (human aSyn 3′UTR; SH-SY5Y): increased | luciferase expression, Firefly/Renilla ratio, short aSyn 3′UTR vector (human aSyn 3′UTR; SH-SY5Y, 100 μM for 24 hrs): do not influence | aSyn content within total cell membrane fraction relative to whole cell lysate (ELISA) (aSyn protein [4]): decreased; also recorded: reduction | aSyn protein content in mitochondrial preparations relative to whole cell aSyn content (ELISA) (aSyn protein [4]): increased proportion; also recorded: preferentially increased | fraction of aSyn protein that colocalized with mitochondria (Mitotracker) (aSyn protein [5]): significantly increased
